What was measured:
KRAS (G12D)::SOS1 = biological target: T1, KRAS (G12D)::SOS1 (Homo sapiens, UniProt P01116, G12D); experiment: KRAS::SOS1 AlphaScreen binding assay, KRAS G12D; settings: read-out: KRASG12D IC50
T1 construct: KRAS (G12D) 1-169, N-terminal 6His-tag, C-terminal avi-tag; 6His-tag (N); purchased Xtal BioStructures, Inc. (KRAS); Viva Biotech Ltd (SOS1)
Excerpt: This assay can be used to examine the potency with which compounds according to the invention binding to (mutated) KRAS inhibit the protein-protein interaction between SOS1 and (mutated) KRAS e.g., KRAS WT, KRAS G12C, KRAS G12D, KRAS G12V, KRAS G13D. […] Low IC50 values in this assay setting are indicative of strong inhibition of protein-protein interaction between SOS1 and KRAS:
These assays measure the inhibitory effect of compounds on KRAS mutant protein-protein interactions using the Alpha Screen technology by Perkin Elmer
The following (mutant) enzyme forms of KRAS and interacting proteins are used in these assays at the given concentrations: • KRAS (G12D) 1-169, N-terminal 6His-tag, C-terminal avi-tag (Xtal BioStructures, Inc.); final assay concentration 10 nM and SOS1 564-1049, N-terminal 229 GST-tag, TEV cleavage site (Viva Biotech Ltd); final assay concentration 5 nM; • KRAS (G12C) 1-169, N-terminal 6His-tag for purification, cleaved off, C-terminal avi-tag, biotinylated, mutations: C51S, C80L, C118S (in house); final assay concentration 7.5 nM and SOS1 564-1049, N-terminal 229 GST-tag, TEV cleavage site (Viva Biotech Ltd); final assay concentration 5 nM; • KRAS (G12V) 1-169, N-terminal 6His-tag for purification, cleaved off, C-terminal avi-tag, biotinylated, TEV cleavage site, mutation: C118S, GDP loaded (in house); final assay concentration 10 nM and SOS1 564-1049, N-terminal 229 GST-tag, TEV cleavage site (Viva Biotech Ltd); final assay concentration 10 nM; • KRAS (G13D) 1-169, N-terminal 6His-tag for purification, cleaved off, C-terminal avi-tag, biotinylated, TEV cleavage site, mutation: C118S, GDP loaded (in house); final assay concentration 10 nM and SOS1 564-1049, N-terminal 229 GST-tag, TEV cleavage site (Viva Biotech Ltd); final assay concentration 10 nM; • KRAS (WT) 1-169, N-terminal 6His-tag for purification, cleaved off, C-terminal avi-tag, biotinylated, TEV cleavage site, mutation: C118S, GDP loaded (in house); final assay concentration 10 nM and SOS1 564-1049, N-terminal 229 GST-tag, TEV cleavage site (Viva Biotech Ltd); final assay concentration 10 nM.
Test compounds dissolved in DMSO are dispensed onto assay plates (Proxiplate 384 PLUS, white, PerkinElmer; 6008289) using an Access Labcyte Workstation with the Labcyte Echo 55×. For the chosen highest assay concentration of 100 μM, 150 nL of compound solution are transferred from a 10 mM DMSO compound stock solution. A series of eleven fivefold dilutions per compound are transferred to the assay plate, compound dilutions are tested in duplicates. DMSO are added as backfill to a total volume of 150 nL.
The assays run on a fully automated robotic system in a darkened room below 100 Lux. To 150 nl of compound dilution 10 μl of a mix including KRAS mutant protein, SOS1 (final assay concentrations see above) and GDP nucleotide (Sigma G7127; final assay concentration 10 μM) in assay buffer (1×PBS, 0.1% BSA, 0.05% Tween 20) are added into columns 1-24.
After 30 minutes incubation time 5 μl of Alpha Screen bead mix in assay buffer are added into columns 1-23. Bead mix consists of AlphaLISA Glutathione Acceptor Beads (PerkinElmer, Cat No AL109) and AlphaScreen Streptavidin Donor Beads (PerkinElmer Cat No 6760002) in assay buffer at a final assay concentration of 10 μg/ml each.
Plates are kept at room temperature in a darkened incubator. After an additional 60 minutes incubation time the signal is measured in a PerkinElmer Envision HTS Multilabel Reader using the AlphaScreen specs from PerkinElmer.
Each plate contains up to 16 wells of a negative control depending on the dilution procedure (platewise or serial) (DMSO instead of test compound; with KRAS mutant::SOS1 GDP mix and bead mix; column 23) and 16wells of a positive control (DMSO instead of test compound; with KRAS mutant::SOS1 GDP mix w/o bead mix; column 24).
As internal control known inhibitors of KRAS mutant::SOS1 interaction can be measured on each compound plate. […]

NCI-H358 cells = experiment: NCI-H358 CTG proliferation assay (120 h) (NSCLC, G12C); format: cell-based; settings: Homo sapiens
Protocol: Additional Proliferation Assays with Mutant Cancer Cell Lines • NCI-H358 CTG proliferation assay (120 h) (NSCLC, G12C)
NCI-H358 cells (ATCC No. CRL-5807) are dispensed into black 384-well plates, flat and clear bottom (Greiner, PNr. 781091) at a density of 200 cells per well in 60 μl RPMI-1640 ATCC-Formulation (Gibco #A10491)+10% FCS (fetal calf serum). […] For the TO time point measurement, untreated cells are analyzed at the time of compound addition. Plates are incubated for 120 h, and cell viability is measured using CellTiter-Glo luminescent cell viability reagent (Promega product code G7570). Viability (stated as percent of control) is defined as relative luminescence units RLU of each well divided by the RLU of cells in DMSO controls.

NCI-H2122 cells = experiment: NCI-H2122 CTG proliferation assay (120 h) (NSCLC, G12C); format: cell-based; settings: Homo sapiens
Protocol: The CTG assay is designed to measure quantitatively the proliferation of NCI-H2122 cells (ATCC CRL-5985), using the CellTiter Glow Assay Kit (Promega G7571). Cells are grown in RPMI medium (ATCC) supplemented with Fetal Calf Serum (Life Technologies, Gibco BRL, Cat. No. 10270-106). On “day 0” 200 NCI-H2122 cells are seeded in 60 μL RPMI ATCC+10% FCS+Penstrep in a black 384-well plate, flat and clear bottom (Greiner, PNr. 781091). Cells are then incubated in the plates at 37° C. in a CO2 incubator overnight. On day 1, compounds (10 mM stock in DMSO) are added with the ECHO acoustic liquid handler system (Beckman Coulter), including DMSO controls. Plates are incubated for 120 h, and cell viability is measured using CellTiter-Glo luminescent cell viability reagent (Promega product code G7570). Viability (stated as percent of control) is defined as relative luminescence units RLU of each well divided by the RLU of cells in DMSO controls. […] values are determined from viability measurements by non-linear regression using a four parameter model. • AsPC-1 CTG proliieradon assay (120 h) (pancreatic cancer, G12D)

T1 sequence (P01116 1-169 isoform P01116-2 G12D): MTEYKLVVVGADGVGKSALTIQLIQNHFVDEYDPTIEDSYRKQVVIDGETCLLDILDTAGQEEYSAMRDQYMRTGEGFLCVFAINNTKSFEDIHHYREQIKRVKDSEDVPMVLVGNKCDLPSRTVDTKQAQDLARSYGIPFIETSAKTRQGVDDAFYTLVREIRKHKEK

Compound	IC50 (KRAS (G12D)::SOS1)	IC50 (NCI-H358 cells)	IC50 (NCI-H2122 cells)
C[C@H](Oc1cc(Nc2ncccn2)nc(-c2noc3c2CCC[C@@]32CCCc3sc(N)c(C#N)c32)n1)[C@@H]1CCCN1C [II-17]	2 nM	775 nM	1650 nM
C[C@H](Oc1cc(O[C@@H]2CNC[C@@H]2F)nc(-c2noc3c2CCC[C@@]32CCCc3sc(N)c(C#N)c32)n1)[C@@H]1CCCN1C [II-29]	1 nM	36 nM	731 nM
C[C@H](Oc1cc(O[C@@H]2CNC2(C)C)nc(-c2noc3c2CCC[C@@]32CCCc3sc(N)c(C#N)c32)n1)[C@@H]1C[C@@H](F)CN1C [II-31]	1 nM	119 nM	1210 nM

Next, values leading:

IC50 (KRAS (G12D)::SOS1)	IC50 (NCI-H358 cells)	IC50 (NCI-H2122 cells)	Compound
2 nM	430 nM	822 nM	C[C@H](Oc1cc(Nc2cccnn2)nc(-c2noc3c2CCC[C@@]32CCCc3sc(N)c(C#N)c32)n1)[C@@H]1CCCN1C [II-18]
1 nM	3270 nM	1460 nM	C[C@H](Oc1cc(O[C@H]2CN(C)C(C)(C)C2)nc(-c2noc3c2CCC[C@@]32CCCc3sc(N)c(C#N)c32)n1)[C@@H]1CCCN1C [II-19]
1 nM	952 nM	9740 nM	C[C@H]1CN(C)CCCN1c1cc(O[C@@H]2CNC2(C)C)nc(-c2noc3c2CCC[C@@]32CCCc3sc(N)c(C#N)c32)n1 [II-28]
1 nM	85 nM	1220 nM	CO[C@@H]1C[C@@H]([C@H](C)Oc2cc(O[C@@H]3CNC3(C)C)nc(-c3noc4c3CCC[C@@]43CCCc4sc(N)c(C#N)c43)n2)N(C)C1 [II-30]

From patent US20250129095A1, “ANNULATED 2-AMINO-3-CYANO THIOPHENES AND DERIVATIVES FOR THE TREATMENT OF CANCER” (Boehringer Ingelheim Int'l GmbH Corp., priority 2021, published 2025)
